# Data published in ChEMBL document CHEMBL2062415, “Steroids from Commiphora mukul display antiproliferative effect against human prostate cancer PC3 cells via induction of apoptosis” (Bioorg Med Chem Lett, 2012).
# Active and inactive are the calls of the source. No cut-off for these calls is given here.
# Assays:
# [1] = tested on: PC-3; assay: Cytotoxicity against human PC3 cells after 24 hrs by MTT assay; assay type: functional, cell-based; conditions: PC-3, 24 h
# [2] = tested on: K562; assay: Cytotoxicity against human K562 cells after 24 hrs by MTT assay; assay type: functional, cell-based; conditions: K562, 24 h
# [3] = tested on: K562; assay: Cytotoxicity against human K562 cells assessed as cell viability at 10 uM after 24 hrs by MTT assay; assay type: functional; conditions: K562, 24 h, read-out: Activity
# [4] = tested on: PC-3; assay: Induction of apoptosis in human PC3 cells assessed as early apoptotic cells at 5 uM after 48 hrs by annexinV/propidium iodide staining-based FITC analysis relative to control; assay type: functional
# [5] = tested on: PC-3; assay: Induction of apoptosis in human PC3 cells assessed as late apoptotic cells at 20 uM after 48 hrs by annexinV/propidium iodide staining-based FITC analysis relative to control; assay type: functional
# [6] = tested on: PC-3; assay: Induction of apoptosis in human PC3 cells assessed as necrotic cells at 20 uM after 48 hrs by annexinV/propidium iodide staining-based FITC analysis relative to control; assay type: functional
# [7] = tested on: DU-145; assay: Induction of apoptosis in human DU145 cells assessed as necrotic cells at 10 uM after 48 hrs by annexinV/propidium iodide staining-based FITC analysis (reference value: 0.35%); assay type: functional
# [8] = tested on: DU-145; assay: Induction of apoptosis in human DU145cells assessed as late apoptotic cells at 20 uM after 48 hrs by annexinV/propidium iodide staining-based FITC analysis (reference value: 2.78%); assay type: functional
# [9] = tested on: DU-145; assay: Induction of apoptosis in human DU145 cells assessed as necrotic cells at 20 uM after 48 hrs by annexinV/propidium iodide staining-based FITC analysis (reference value: 0.35%); assay type: functional
# [10] = tested on: MCF7; assay: Induction of apoptosis in human MCF7 cells assessed as early apoptotic cells at 5 uM after 48 hrs by annexinV/propidium iodide staining-based FITC analysis (reference value: 5.48%); assay type: functional
# [11] = tested on: MCF7; assay: Induction of apoptosis in human MCF7 cells assessed as late apoptotic cells at 5 uM after 48 hrs by annexinV/propidium iodide staining-based FITC analysis (reference value: 3.57%); assay type: functional
# [12] = tested on: MCF7; assay: Induction of apoptosis in human MCF7 cells assessed as early apoptotic cells at 10 uM after 48 hrs by annexinV/propidium iodide staining-based FITC analysis (reference value: 5.48%); assay type: functional
# [13] = tested on: MCF7; assay: Induction of apoptosis in human MCF7 cells assessed as early apoptotic cells at 20 uM after 48 hrs by annexinV/propidium iodide staining-based FITC analysis (reference value: 5.48%); assay type: functional
# [14] = tested on: K562; assay: Induction of apoptosis in human K562 cells assessed as early apoptotic cells at 1 uM after 48 hrs by annexinV/propidium iodide staining-based FITC analysis (reference value: 2.08%); assay type: functional
# [15] = tested on: K562; assay: Induction of apoptosis in human K562 cells assessed as early apoptotic cells at 5 uM after 48 hrs by annexinV/propidium iodide staining-based FITC analysis (reference value: 2.08%); assay type: functional
# [16] = tested on: K562; assay: Induction of apoptosis in human K562 cells assessed as early apoptotic cells at 10 uM after 48 hrs by annexinV/propidium iodide staining-based FITC analysis (reference value: 2.08%); assay type: functional
# [17] = tested on: PC-3; assay: Cell cycle arrest in human PC3 cells assessed as accumulation at S phase at 5 uM after 48 hrs by propidium iodide staining-based flow cytometric analysis relative to control; assay type: functional
# [18] = tested on: PC-3; assay: Cell cycle arrest in human PC3 cells assessed as accumulation at G2/M phase at 5 uM after 48 hrs by propidium iodide staining-based flow cytometric analysis relative to control; assay type: functional
# [19] = tested on: PC-3; assay: Cell cycle arrest in human PC3 cells assessed as accumulation at G2/M phase at 10 uM after 48 hrs by propidium iodide staining-based flow cytometric analysis relative to control; assay type: functional
# [20] = tested on: DU-145; assay: Induction of apoptosis in human DU145 cells assessed as accumulation at S phase at 40 uM after 48 hrs by propidium iodide staining-based flow cytometric analysis (reference value: 11.48%); assay type: functional
# [21] = tested on: DU-145; assay: Induction of apoptosis in human DU145 cells assessed as accumulation at G2/M phase at 40 uM after 48 hrs by propidium iodide staining-based flow cytometric analysis (reference value: 16.14%); assay type: functional
# [22] = tested on: MCF7; assay: Induction of apoptosis in human MCF7 cells assessed as accumulation at G0/G1 phase at 5 uM after 48 hrs by propidium iodide staining-based flow cytometric analysis (reference value: 67.46%); assay type: functional
# [23] = tested on: MCF7; assay: Induction of apoptosis in human MCF7 cells assessed as accumulation at S phase at 5 uM after 48 hrs by propidium iodide staining-based flow cytometric analysis (reference value: 22.99%); assay type: functional
# [24] = tested on: MCF7; assay: Induction of apoptosis in human MCF7 cells assessed as accumulation at G2/M phase at 5 uM after 48 hrs by propidium iodide staining-based flow cytometric analysis (reference value: 9.55%); assay type: functional
# [25] = tested on: MCF7; assay: Induction of apoptosis in human MCF7 cells assessed as accumulation at G0/G1 phase at 10 uM after 48 hrs by propidium iodide staining-based flow cytometric analysis (reference value: 67.46%); assay type: functional
# [26] = tested on: MCF7; assay: Induction of apoptosis in human MCF7 cells assessed as accumulation at S phase at 10 uM after 48 hrs by propidium iodide staining-based flow cytometric analysis (reference value: 22.99%); assay type: functional
# [27] = tested on: MCF7; assay: Induction of apoptosis in human MCF7 cells assessed as accumulation at G2/M phase at 10 uM after 48 hrs by propidium iodide staining-based flow cytometric analysis (reference value: 9.55%); assay type: functional
# [28] = tested on: MCF7; assay: Induction of apoptosis in human MCF7 cells assessed as accumulation at S phase at 20 uM after 48 hrs by propidium iodide staining-based flow cytometric analysis (reference value: 22.99%); assay type: functional
# [29] = tested on: K562; assay: Induction of apoptosis in human K562 cells assessed as accumulation at G2/M phase at 1 uM after 48 hrs by propidium iodide staining-based flow cytometric analysis (reference value: 15.72%); assay type: functional
# [30] = tested on: K562; assay: Induction of apoptosis in human K562 cells assessed as accumulation at G0/G1 phase at 5 uM after 48 hrs by propidium iodide staining-based flow cytometric analysis (reference value: 38.61%); assay type: functional
# [31] = tested on: K562; assay: Induction of apoptosis in human K562 cells assessed as accumulation at S phase at 5 uM after 48 hrs by propidium iodide staining-based flow cytometric analysis (reference value: 45.67%); assay type: functional
# [32] = tested on: K562; assay: Induction of apoptosis in human K562 cells assessed as accumulation at G2/M phase at 5 uM after 48 hrs by propidium iodide staining-based flow cytometric analysis (reference value: 15.72%); assay type: functional
# [33] = tested on: K562; assay: Induction of apoptosis in human K562 cells assessed as accumulation at G0/G1 phase at 10 uM after 48 hrs by propidium iodide staining-based flow cytometric analysis (reference value: 38.61%); assay type: functional
# [34] = tested on: K562; assay: Induction of apoptosis in human K562 cells assessed as accumulation at G2/M phase at 10 uM after 48 hrs by propidium iodide staining-based flow cytometric analysis (reference value: 15.72%); assay type: functional
# [35] = tested on: PC-3; assay: Increase in Bax protein level in human PC3 cells after 48 hrs by Western blot analysis; assay type: functional, cell-based
# [36] = tested on: PC-3; assay: Induction of apoptosis in human PC3 cells assessed as cleavage of caspase 9 at 5 to 20 uM after 48 hrs by Western blot analysis; assay type: functional, cell-based
smiles,measurement,setting,value
CC[C@H](/C=C/[C@@H](C)[C@H]1CC[C@H]2[C@H]3[C@H]([C@H](O)C[C@]12C)[C@@]1(C)CC[C@H](O)CC1=C[C@H]3O)C(C)C,IC50,[1],10.9 µM
same,IC50,[2],5.21 µM
same,viability at 10 µM,[3],32%
same,Activity,[4],1.05%
same,Activity,[5],42.21%
same,Activity,[6],2.79%
same,Activity,[7],0.28%
same,Activity,[8],5.73%
same,Activity,[9],2.38%
same,Activity,[10],6.72%
same,Activity,[11],3.47%
same,Activity,[12],6.81%
same,Activity,[13],9.91%
same,Activity,[14],1.99%
same,Activity,[15],3.77%
same,Activity,[16],6.1%
same,Activity,[17],26.9%
same,Activity,[18],14.11%
same,Activity,[19],24.03%
same,Activity,[20],17.68%
same,Activity,[21],35.85%
same,Activity,[22],72.36%
same,Activity,[23],19.09%
same,Activity,[24],8.56%
same,Activity,[25],71.05%
same,Activity,[26],18.92%
same,Activity,[27],10.03%
same,Activity,[28],19.37%
same,Activity,[29],13.08%
same,Activity,[30],40.79%
same,Activity,[31],45.5%
same,Activity,[32],13.71%
same,Activity,[33],39.64%
same,Activity,[34],12.11%
same,Activity,[35],Dose-dependent effect
same,Activity,[36],Active
